Laboratory results from patent publication US8354372B2 (priority 2006, dated 2013).

Assays:
[1] = system: bovine adrenal chromaffin cells; assay type: cell-based
CCI-rats = settings: rat, in vivo, po
α4β2 nAChR = α4β2 nAChR (Homo sapiens, UniProt P17787+P43681); assay type: cell-based
α4β4 nAChR = α4β4 nAChR (Homo sapiens, UniProt P30926+P43681); assay type: cell-based
[2] = target: homopentameric neuronal nAChR, α7 (Homo sapiens, UniProt P36544); assay type: cell-based; settings: 10 µM
α3α5β4 nAChR = α3α5β4 nAChR (Homo sapiens, UniProt P30926+P32297); assay type: cell-based
α3α6β2 nAChR = α3α6β2 nAChR (Homo sapiens, UniProt P17787+P32297+Q15825); assay type: cell-based; settings: 30 µM
α3-containing nAChRs = assay type: cell-based
[3] = target: α3, β4 subtype of the nAchR (Rattus norvegicus, UniProt P04757+P12392); settings: cited from earlier work
α9, α10 nAchR = settings: cited from earlier work
[4] = system: streptozotocin-induced diabetic rat; settings: in vivo; cited from earlier work
[5] = system: rat models of human neuropathic pain; settings: in vivo; cited from earlier work
[6] = system: unmyelinated C-fiber axons in isolated segments of peripheral human nerves; settings: cited from earlier work
[7] = in vivo; cited from earlier work
[8] = system: animal model of inflammatory pain; settings: in vivo; cited from earlier work
[9] = target: endoproteinase Glu-C (Endo Glu-C) (Staphylococcus aureus, UniProt P0C1U8); settings: isolated enzyme glu c, pH 8
[10] = human, plasma
[11] = target: nAChR combination α3α5β4 expressed in Xenopus oocytes; experiment: cell-based or functional assay

homopentameric neuronal nAChR, α7, sequence (P36544 23-502 limits assumed): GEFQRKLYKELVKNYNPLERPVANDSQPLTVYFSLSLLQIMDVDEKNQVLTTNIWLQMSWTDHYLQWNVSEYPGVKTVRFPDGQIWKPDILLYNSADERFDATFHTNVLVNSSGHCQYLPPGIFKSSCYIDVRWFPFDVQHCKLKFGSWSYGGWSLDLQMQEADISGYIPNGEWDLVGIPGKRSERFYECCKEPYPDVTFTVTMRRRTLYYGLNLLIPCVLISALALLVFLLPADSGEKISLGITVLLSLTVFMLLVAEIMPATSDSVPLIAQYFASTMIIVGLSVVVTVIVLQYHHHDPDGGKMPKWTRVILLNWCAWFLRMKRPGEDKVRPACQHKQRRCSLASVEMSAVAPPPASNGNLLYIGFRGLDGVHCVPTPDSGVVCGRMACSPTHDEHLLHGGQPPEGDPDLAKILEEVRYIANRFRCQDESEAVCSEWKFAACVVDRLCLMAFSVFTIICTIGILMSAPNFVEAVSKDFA
α3, β4 subtype of the nAchR, sequence (P04757 26-499 limits assumed): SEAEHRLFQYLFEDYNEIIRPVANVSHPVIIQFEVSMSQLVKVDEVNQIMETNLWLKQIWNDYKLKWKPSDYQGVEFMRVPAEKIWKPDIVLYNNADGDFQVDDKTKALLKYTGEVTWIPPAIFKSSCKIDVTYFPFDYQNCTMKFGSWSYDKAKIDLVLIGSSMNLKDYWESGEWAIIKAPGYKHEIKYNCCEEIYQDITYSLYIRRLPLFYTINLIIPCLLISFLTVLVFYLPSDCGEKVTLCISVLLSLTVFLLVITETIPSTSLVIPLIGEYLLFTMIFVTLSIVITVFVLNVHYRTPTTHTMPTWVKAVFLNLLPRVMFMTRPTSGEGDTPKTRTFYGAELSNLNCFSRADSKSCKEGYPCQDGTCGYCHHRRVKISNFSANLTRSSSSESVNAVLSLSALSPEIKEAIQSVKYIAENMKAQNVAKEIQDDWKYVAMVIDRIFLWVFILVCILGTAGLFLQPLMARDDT
α3, β4 subtype of the nAchR, sequence (P12392 21-495 limits assumed): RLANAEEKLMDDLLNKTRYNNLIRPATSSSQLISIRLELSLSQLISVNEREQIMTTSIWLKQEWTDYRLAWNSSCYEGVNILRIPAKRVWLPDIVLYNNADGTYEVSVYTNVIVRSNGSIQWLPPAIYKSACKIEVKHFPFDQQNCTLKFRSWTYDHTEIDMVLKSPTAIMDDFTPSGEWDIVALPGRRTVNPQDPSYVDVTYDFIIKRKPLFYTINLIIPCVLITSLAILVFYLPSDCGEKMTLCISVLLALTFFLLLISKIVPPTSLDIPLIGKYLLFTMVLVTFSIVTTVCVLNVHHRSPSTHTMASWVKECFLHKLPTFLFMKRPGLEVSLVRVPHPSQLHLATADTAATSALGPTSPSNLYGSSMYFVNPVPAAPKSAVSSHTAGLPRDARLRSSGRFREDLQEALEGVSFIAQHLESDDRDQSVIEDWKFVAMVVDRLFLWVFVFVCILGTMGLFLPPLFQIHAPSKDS
α3α6β2 nAChR, sequence (P32297 32-505 limits assumed): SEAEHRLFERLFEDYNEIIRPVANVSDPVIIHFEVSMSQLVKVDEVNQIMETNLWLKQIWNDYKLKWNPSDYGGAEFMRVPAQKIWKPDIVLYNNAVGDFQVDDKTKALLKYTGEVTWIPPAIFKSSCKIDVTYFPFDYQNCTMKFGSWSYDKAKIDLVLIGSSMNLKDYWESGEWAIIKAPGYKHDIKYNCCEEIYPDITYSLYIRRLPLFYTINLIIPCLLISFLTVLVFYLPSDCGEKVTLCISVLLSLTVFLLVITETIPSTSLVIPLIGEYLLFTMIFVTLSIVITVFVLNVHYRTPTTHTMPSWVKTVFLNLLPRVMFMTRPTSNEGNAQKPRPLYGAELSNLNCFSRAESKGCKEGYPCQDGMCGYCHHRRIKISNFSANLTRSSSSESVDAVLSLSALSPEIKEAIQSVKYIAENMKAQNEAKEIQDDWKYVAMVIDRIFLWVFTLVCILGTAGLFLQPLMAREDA
α3α6β2 nAChR, sequence (Q15825 26-494 limits assumed): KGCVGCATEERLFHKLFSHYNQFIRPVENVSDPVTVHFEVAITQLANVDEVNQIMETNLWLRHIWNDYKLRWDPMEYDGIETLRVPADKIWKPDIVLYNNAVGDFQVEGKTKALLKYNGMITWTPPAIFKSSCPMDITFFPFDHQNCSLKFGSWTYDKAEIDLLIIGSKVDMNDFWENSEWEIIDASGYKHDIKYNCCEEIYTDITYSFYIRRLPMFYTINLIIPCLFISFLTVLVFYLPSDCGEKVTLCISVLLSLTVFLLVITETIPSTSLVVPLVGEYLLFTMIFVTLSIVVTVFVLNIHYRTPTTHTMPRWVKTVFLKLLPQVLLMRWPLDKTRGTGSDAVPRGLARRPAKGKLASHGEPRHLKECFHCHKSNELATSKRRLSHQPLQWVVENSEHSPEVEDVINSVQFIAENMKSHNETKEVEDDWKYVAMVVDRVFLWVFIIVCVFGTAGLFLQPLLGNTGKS
α3α6β2 nAChR, sequence (P17787 26-502 limits assumed): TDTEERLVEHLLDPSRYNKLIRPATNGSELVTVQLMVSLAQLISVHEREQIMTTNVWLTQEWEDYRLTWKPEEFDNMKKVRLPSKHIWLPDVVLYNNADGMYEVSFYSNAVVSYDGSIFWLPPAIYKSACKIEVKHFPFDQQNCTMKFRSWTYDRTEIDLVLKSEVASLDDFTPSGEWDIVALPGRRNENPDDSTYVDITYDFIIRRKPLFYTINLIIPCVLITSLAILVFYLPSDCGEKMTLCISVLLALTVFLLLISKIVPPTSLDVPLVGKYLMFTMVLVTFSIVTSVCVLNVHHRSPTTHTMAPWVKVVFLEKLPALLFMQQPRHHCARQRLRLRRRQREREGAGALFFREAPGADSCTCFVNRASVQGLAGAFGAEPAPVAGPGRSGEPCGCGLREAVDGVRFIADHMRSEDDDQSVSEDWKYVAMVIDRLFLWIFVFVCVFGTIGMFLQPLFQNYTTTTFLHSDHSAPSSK
α3α5β4 nAChR, sequence (P30926 whole entry, looked up): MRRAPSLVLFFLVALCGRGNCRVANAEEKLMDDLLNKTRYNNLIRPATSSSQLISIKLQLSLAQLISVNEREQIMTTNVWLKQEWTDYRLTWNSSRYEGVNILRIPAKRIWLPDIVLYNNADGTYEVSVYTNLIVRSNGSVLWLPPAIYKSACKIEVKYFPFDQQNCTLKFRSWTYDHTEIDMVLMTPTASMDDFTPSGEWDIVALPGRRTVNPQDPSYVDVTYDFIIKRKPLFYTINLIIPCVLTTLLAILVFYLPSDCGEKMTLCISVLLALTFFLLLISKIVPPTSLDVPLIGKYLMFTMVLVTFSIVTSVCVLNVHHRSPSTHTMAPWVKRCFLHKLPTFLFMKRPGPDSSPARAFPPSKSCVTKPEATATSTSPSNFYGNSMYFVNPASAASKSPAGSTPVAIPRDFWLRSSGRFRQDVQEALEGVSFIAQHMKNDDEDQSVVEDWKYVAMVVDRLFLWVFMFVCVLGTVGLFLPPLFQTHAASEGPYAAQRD
α3α5β4 nAChR, sequence (P32297 whole entry, looked up): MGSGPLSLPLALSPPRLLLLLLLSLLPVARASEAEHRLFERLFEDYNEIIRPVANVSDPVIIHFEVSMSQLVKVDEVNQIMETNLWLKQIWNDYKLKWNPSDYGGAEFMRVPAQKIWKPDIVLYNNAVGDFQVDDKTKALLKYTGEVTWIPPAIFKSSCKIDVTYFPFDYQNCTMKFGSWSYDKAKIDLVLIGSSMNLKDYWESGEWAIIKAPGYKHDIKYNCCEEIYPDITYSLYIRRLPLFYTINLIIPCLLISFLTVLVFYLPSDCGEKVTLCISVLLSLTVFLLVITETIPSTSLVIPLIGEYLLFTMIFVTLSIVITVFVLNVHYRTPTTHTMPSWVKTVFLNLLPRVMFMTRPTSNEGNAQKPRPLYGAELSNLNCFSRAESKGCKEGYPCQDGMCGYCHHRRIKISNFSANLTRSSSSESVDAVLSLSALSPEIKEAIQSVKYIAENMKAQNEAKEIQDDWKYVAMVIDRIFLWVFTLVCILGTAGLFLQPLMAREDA
endoproteinase Glu-C (Endo Glu-C), sequence (P0C1U8 69-336 limits assumed): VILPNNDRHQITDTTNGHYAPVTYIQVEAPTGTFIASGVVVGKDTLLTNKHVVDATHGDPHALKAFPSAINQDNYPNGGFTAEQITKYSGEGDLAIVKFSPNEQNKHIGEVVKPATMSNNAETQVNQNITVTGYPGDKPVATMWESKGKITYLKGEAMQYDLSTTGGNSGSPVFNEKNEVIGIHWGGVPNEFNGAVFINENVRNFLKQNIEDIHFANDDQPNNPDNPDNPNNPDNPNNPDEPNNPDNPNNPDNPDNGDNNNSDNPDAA
α4β2 nAChR, sequence (P43681 29-627 limits assumed): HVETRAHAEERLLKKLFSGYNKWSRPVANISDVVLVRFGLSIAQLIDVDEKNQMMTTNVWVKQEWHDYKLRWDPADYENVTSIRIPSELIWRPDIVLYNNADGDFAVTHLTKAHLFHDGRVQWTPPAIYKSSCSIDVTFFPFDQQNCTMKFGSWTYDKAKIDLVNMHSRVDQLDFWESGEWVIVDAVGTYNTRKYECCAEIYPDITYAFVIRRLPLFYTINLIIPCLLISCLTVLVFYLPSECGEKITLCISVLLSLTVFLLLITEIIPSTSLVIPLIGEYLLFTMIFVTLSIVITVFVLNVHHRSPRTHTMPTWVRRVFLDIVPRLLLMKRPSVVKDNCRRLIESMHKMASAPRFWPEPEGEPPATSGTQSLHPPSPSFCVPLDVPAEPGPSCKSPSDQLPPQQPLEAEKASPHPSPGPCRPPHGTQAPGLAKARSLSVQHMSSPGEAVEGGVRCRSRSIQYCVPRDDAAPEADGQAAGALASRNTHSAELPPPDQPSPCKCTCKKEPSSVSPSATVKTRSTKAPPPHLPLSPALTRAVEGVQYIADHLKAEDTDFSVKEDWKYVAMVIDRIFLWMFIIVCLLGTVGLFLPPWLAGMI
α4β2 nAChR, sequence (P17787 26-502 limits assumed): as the sequence (P17787 26-502 limits assumed) above

Compound: CC[C@H](C)[C@@H]1NC(=O)[C@H](CCC(=O)O)NC(=O)[C@@H]2CCCN2C(=O)[C@H](Cc2c[nH]cn2)NC(=O)[C@H](CC(=O)O)NC(=O)[C@H](Cc2ccc(O)cc2)NC(=O)[C@H](CC(N)=O)NC(=O)[C@@H]2CSSC[C@@H]3NC(=O)CNC(=O)CNC(=O)CNC(=O)[C@H](C)NC(=O)[C@H](C)NC(=O)CNC(=O)CNC(=O)[C@H](CSSC[C@H](NC3=O)C(=O)N[C@@H](CO)C(=O)N[C@@H](CC(=O)O)C(=O)N3CCC[C@H]3C(=O)N[C@@H](CCCNC(=N)N)C(=O)N2)NC1=O [cVc1.1-6]
- inhibition of catecholamine release, activity relative to linear Vc1.1 [1]: identical, within experimental error
- ED50 (CCI-rats): ~1 mg/kg

Compound: Vc1.1
- inhibition of ACh-evoked currents (α4β2 nAChR): failed to inhibit
- inhibition of ACh-evoked currents (α4β4 nAChR): failed to inhibit
- inhibition of the ACh-evoked current [2]: 14±2%
- lower potency to inhibit α3α5β4 (α3α5β4 nAChR): > 5 fold
- inhibition of ACh-induced current amplitude (α3α6β2 nAChR): ~50%
- antagonism of ACh-evoked currents (α3-containing nAChRs): did not antagonise ACh-evoked currents
- detectable response alone (>50 nA) (α3-containing nAChRs): nor elicit a detectable response alone
- IC50 [3]: 4200 nM
- affinity for α9, α10 nAchR relative to α3, β4 nAchR (α9, α10 nAchR): one hundred fold higher
- IC50 (α9, α10 nAchR; read-out: affinity for the α9, α10 nAchR): 22.9 nM
- time after dosing at which anti allodynic effect was observed [4]: ≤ 1 h
- effect on neuropathic pain in three rat models [5]: alleviate neuropathic pain
- functional recovery of injured neurons [5]: accelerate the functional recovery of injured neurons
- effect on nicotine-induced increase in axonal excitability [6]: antagonize
- analgesic activity relative to Ziconotide [7]: more active than Ziconotide
- efficacy in an animal model of inflammatory pain [8]: effective

Compound: CC(C)C[C@@H]1NC(=O)[C@H](CC(N)=O)NC(=O)[C@H](CO)NC(=O)[C@H](Cc2cnc[nH]2)NC(=O)[C@H](CCC(=O)O)NC(=O)[C@H](CC(C)C)NC(=O)[C@H](Cc2cnc[nH]2)NC(=O)[C@@H]2CSSC[C@H](NC(=O)CN)C(=O)N[C@@H](CSSC[C@@H](C(N)=O)NC1=O)C(=O)N[C@@H](CO)C(=O)N[C@@H](CC(N)=O)C(=O)N1CCC[C@H]1C(=O)N[C@@H](C(C)C)C(=O)N2 [MII]
- half-life [9]: ~10 h
- half-life [10]: ~16 h

Compound: α-conotoxin Vc1.1 (peptide)
- potency to inhibit ACh-evoked current (fold lower potency) [11]: > 5
